According to patent US4937390A, “Compound useful for the production of 3-deoxy-3-fluoro-myo-inositol” (University of Pittsburgh, priority 1989, dated 1990):

Tested on: PC12 cells
Assay: Cell growth inhibition (cell counts), dose response and time course in PC12 cells
Assay type: cell-based, rat
Details: for concentration determined to have maximal effects in the dose response study / inhibition of cell replication / Cell Number / potency at inhibiting cell replication relative to the 3-fluoro-myo-inositol analog: PC12 cells; for concentration determined to have maximal effects in the dose response study: cell replication; for inhibition of cell replication: dose response study, maximal effect; for inhibition of cell replication / Cell Number: five days
Method: The biological effects of the 3-fluoro and 1-fluoro myo-inositol analogs were tested in PC12 cells, a cell line derived from a rat pheochromocytoma, which has been widely used to study the effects of various growth factors and […]., Adv. Cell Neurobiol., 3, 373-414, (1982), the disclosure of which is incorporated herein by reference.
PC12 cells were seeded at a density of 3.3×10^5 cells/cm^2 in plastic culture dishes and grown at 37° C. in a humidified atmosphere of 95% air/5% CO2. The basal medium used in these experiments was RPMI-1640 medium (Gibco). In some experiments a specially formulated inositol-free RPMI-1640 medium (Gibco) was used. This basal medium was supplemented with either normal or extensively dialyzed horse serum (10%) and fetal calf serum (5%) (Gibco). Some control dishes were grown in complete RPMI medium, i.e. with myo-inositol and containing non-dialyzed serum (Control 1) and some control dishes were grown in inositol deficient medium, i.e., RPMI without inositol and with dialyzed serum (Control 2). The inositol analogs were dissolved in distilled H2 O and added to the culture medium at the indicated concentrations.
Cell counts were performed by removing the medium, washing the cells gently in PBS with calcium, detaching the cells by 15 minute induction in PBS/EDTA (0.5 mM) containing 0.1% trypsin, and counting in a hemocytometer.
A dose-response study was performed by growing cells in the presence of certain concentrations of the 3-fluoro and the 1-fluoro-myo-inositol analogs. At the end of five days, the cells were counted by the means described hereinabove.
The time course effect on cell replication was then examined, using the concentration of 1-fluoro and 3-fluoro myo-inositol analogs determined to have maximal effects in the dose response study of Table 1. (1 mM and 5 mM for the 1-fluoro and 3-fluoro-myo-inositol analogs, respectively).

| SMILES | concentration determined to have maximal effects in the dose response study [mM] | inhibition of cell replication | Cell Number (0.01 mM) | Cell Number (0.03 mM) | Cell Number (0.10 mM) | Cell Number (0.30 mM) | Cell Number (1.0 mM) | Cell Number (3.0 mM) | Cell Number (10.0 mM) | Cell Number (30.0 mM) | also measured |
| --- | --- | --- | --- | --- | --- | --- | --- | --- | --- | --- | --- |
| O[C@@H]1[C@@H](O)[C@H](O)[C@@H](F)[C@@H](O)[C@H]1O [3-deoxy-3-fluoro-myo-inositol] | 5 | approximately 50% | 4.60 ± 0.24 × 10^5 cells/dish | 4.49 ± 0.07 × 10^5 cells/dish | 4.21 ± 0.05 × 10^5 cells/dish | 3.87 ± 0.05 × 10^5 cells/dish | 3.21 ± 0.08 × 10^5 cells/dish | 2.53 ± 0.04 × 10^5 cells/dish | 2.50 ± 0.03 × 10^5 cells/dish | 2.36 ± 0.01 × 10^5 cells/dish | Time course cell counts (Day 0, 5 mM, inositol-free medium): 1.46 × 10^5 cells per dish; Time course cell counts (Day 1, 5 mM): 2.12 ± 0.02 cells per dish, × 10^5; Time course cell counts (Day 3, 5 mM): 4.2 ± 0.1 cells per dish, × 10^5; Time course cell counts (Day 5, 5 mM): 7.6 ± 0.1 cells per dish, × 10^5; Time course cell counts (Day 7, 5 mM): 10.6 ± 0.6 cells per dish, × 10^5 |
| O[C@@H]1[C@@H](O)[C@@H](O)[C@@H](F)[C@H](O)[C@H]1O [1-deoxy-1-fluoro-myo-inositol] | 1 | approximately 50% | 4.53 ± 0.13 × 10^5 cells/dish | 4.18 ± 0.07 × 10^5 cells/dish | 3.71 ± 0.03 × 10^5 cells/dish | 3.29 ± 0.08 × 10^5 cells/dish | 2.73 ± 0.13 × 10^5 cells/dish | 2.67 ± 0.09 × 10^5 cells/dish | 2.68 ± 0.07 × 10^5 cells/dish | 2.72 ± 0.03 × 10^5 cells/dish | Time course cell counts (Day 0, 1 mM, inositol-free medium): 1.46 × 10^5 cells per dish; Time course cell counts (Day 1, 1 mM): 2.10 ± 0.03 cells per dish, × 10^5; Time course cell counts (Day 3, 1 mM): 4.5 ± 0.10 cells per dish, × 10^5; Time course cell counts (Day 5, 1 mM): 8.4 ± 0.7 cells per dish, × 10^5; Time course cell counts (Day 7, 1 mM): 10.8 ± 0.6 cells per dish, × 10^5; potency at inhibiting cell replication relative to the 3-fluoro-myo-inositol analog (listed as 1-deoxy-1-deoxy-1-fluoro-myo-inositol): about five-fold; potency at inhibiting cell replication relative to the 3-fluoro-myo-inositol analog (listed as 1-fluoro-myo-inositol analog): 5 fold |
